Test results as given in the supplement of paper PMC11208160.

Assay: recombinant barcode read abundance after kanamycin selection (control-corrected) (log10(CPM+1)); higher = more efficient recombination; sequences stand for … in AGTGCAGAGAAAATCGGCCAGTTTTCTCTGCCTGCAGTCCGCATGCCGT…AGATTTATGCAGCGGACTGCCTTTCTCCCAAAGTGATAAACCGGACAGTATCATGGACCGGTTTTCCCGGTAATCCGTATTTGCAAGGTTGGTTTCACT; site = the 11-nt target
In short: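 Each value is log10(CPM+1). It describes recombination efficiency, taken as averaged, control-corrected counts per million of barcodes at recombinant junctions. The pooled E. coli library paired targets with IS621 bridge RNA target-binding loops, was co-electroporated with a donor plasmid, and was plated twice on chloramphenicol/ampicillin LB agar (control) and twice on chloramphenicol/ampicillin/kanamycin containing 0.1 mM IPTG.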
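Note: IS621 recombinase and bridge RNA in Escherichia coli cells.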

Sequence	recombinant barcode read abundance (log10)
CCTAAGACTTGGGTTCTAACCTGTTGCCT (site CCTAAGACTAG)	0.595
CCTAAGACTTGGGTTCTAACCTGTTGCCT (site CCTAAGACTCG)	0.0786
CCTAAGACTTGGGTTCTAACCTGTTGCCT (site CCTAAGACTGG)	0.0702
CCTAAGACTTGGGTTCTAACCTGTTGCCT (site CCTAAGACTTG)	0.0542
CCTAAGCCTTGGGTTCTAACCTGTTGCAT (site CCTAAGCCTAT)	0.859
CCTAAGCCTTGGGTTCTAACCTGTTGCAT (site GGACGCACTCC)	0.111
CCTAATACTTGGGTTCTAACCTGTTGCTT (site ACTAATCCTAA)	0.107
CCTAATACTTGGGTTCTAACCTGTTGCTT (site CCTAATACTAA)	0.155
CCTACATCTTGGGTTCTAACCTGTTGCAT (site CCTACATCTAT)	0.252
CCTACATCTTGGGTTCTAACCTGTTGCAT (site CCTACATCTTA)	0.0552
CCTACATCTTGGGTTCTAACCTGTTGCCT (site CCTACAACTAG)	0.124
CCTACATCTTGGGTTCTAACCTGTTGCCT (site CCTACACCTAG)	0.115
CCTACATCTTGGGTTCTAACCTGTTGCCT (site CCTACAGCTAG)	0.0484
CCTACATCTTGGGTTCTAACCTGTTGCCT (site CCTACATCTAG)	0.123
CCTACTCCTTGGGTTCTAACCTGTTGCAG (site CCTACTACTCG)	0.0435
CCTACTCCTTGGGTTCTAACCTGTTGCAG (site CCTACTCCTCT)	0.0147
CCTATCCCTTGGGTTCTAACCTGTTGCCT (site CCTATCCCTAG)	1.32
CCTATCCCTTGGGTTCTAACCTGTTGCCT (site CCTTTCACTAG)	0.311
CCTCAATCTTGGGTTCTAACCTGTTGCTT (site CCTCAATCTAA)	0.224
CCTCAATCTTGGGTTCTAACCTGTTGCTT (site CCTCACTCTAA)	0.0745
CCTCAATCTTGGGTTCTAACCTGTTGCTT (site CCTCAGTCTAA)	0.0516
CCTCAATCTTGGGTTCTAACCTGTTGCTT (site CCTCATTCTAA)	0.144
CCTCACTCTTGGGTTCTAACCTGTTGCTT (site CCTCAATCTAA)	0.058
CCTCACTCTTGGGTTCTAACCTGTTGCTT (site CCTCACTCTAA)	1.2
CCTCACTCTTGGGTTCTAACCTGTTGCTT (site CCTCAGTCTAA)	0.00592
CCTCACTCTTGGGTTCTAACCTGTTGCTT (site CCTCATTCTAA)	0.0602

Sequence	recombinant barcode read abundance (log10)
CCTCAGACTTGGGTTCTAACCTGTTGCGA (site CCTCAGACTTC)	2.79
CCTCAGACTTGGGTTCTAACCTGTTGCGA (site CTTCAGACTTA)	0.0629
CCTCAGGCTTGGGTTCTAACCTGTTGCCA (site CCTCAGGCTAG)	0.312
CCTCAGGCTTGGGTTCTAACCTGTTGCCA (site CCTCAGGCTCG)	0.0454
CCTCAGGCTTGGGTTCTAACCTGTTGCCA (site CCTCAGGCTGG)	0.217
CCTCAGGCTTGGGTTCTAACCTGTTGCCA (site CCTCAGGCTTG)	0.323
CCTCAGGCTTGGGTTCTAACCTGTTGCCC (site CCTCAGGCTAG)	0.0156
CCTCAGGCTTGGGTTCTAACCTGTTGCCC (site CCTCAGGCTCG)	0.0734
CCTCAGGCTTGGGTTCTAACCTGTTGCCC (site CCTCAGGCTGG)	0.651
CCTCAGGCTTGGGTTCTAACCTGTTGCCC (site CCTCAGGCTTG)	0.399
CCTCAGGCTTGGGTTCTAACCTGTTGCCG (site CCTCAGGCTAG)	0.0315
CCTCAGGCTTGGGTTCTAACCTGTTGCCG (site CCTCAGGCTCG)	0.229
CCTCAGGCTTGGGTTCTAACCTGTTGCCG (site CCTCAGGCTGG)	0.107
CCTCAGGCTTGGGTTCTAACCTGTTGCCG (site CCTCAGGCTTG)	0.125
CCTCAGTCTTGGGTTCTAACCTGTTGCGA (site CCTCACTCTCC)	0.0773
CCTCAGTCTTGGGTTCTAACCTGTTGCGA (site CCTCAGTCTTC)	1.81
CCTCATTCTTGGGTTCTAACCTGTTGCTT (site CCTCAATCTAA)	0.0648
CCTCATTCTTGGGTTCTAACCTGTTGCTT (site CCTCACTCTAA)	0
CCTCATTCTTGGGTTCTAACCTGTTGCTT (site CCTCAGTCTAA)	0.142
CCTCATTCTTGGGTTCTAACCTGTTGCTT (site CCTCATTCTAA)	0.199
CCTCTGGCTTGGGTTCTAACCTGTTGCCT (site CCGCTGTCTAG)	0.808
CCTCTGGCTTGGGTTCTAACCTGTTGCCT (site CCTCTGGCTAG)	0.514
CCTGACTCTTGGGTTCTAACCTGTTGCCT (site CCTGAATCTAG)	0.088
CCTGACTCTTGGGTTCTAACCTGTTGCCT (site CCTGACTCTAG)	0.85
CCTGACTCTTGGGTTCTAACCTGTTGCCT (site CCTGAGTCTAG)	0.0146
CCTGACTCTTGGGTTCTAACCTGTTGCCT (site CCTGATTCTAG)	0.195

Sequence	recombinant barcode read abundance (log10)
CCTGCGACTTGGGTTCTAACCTGTTGCCT (site CCTGCGACTAG)	0.408
CCTGCGACTTGGGTTCTAACCTGTTGCCT (site CCTGCGGCTAG)	0.0687
CCTGCTCCTTGGGTTCTAACCTGTTGCTT (site CCTACTCCTAG)	0.0276
CCTGCTCCTTGGGTTCTAACCTGTTGCTT (site CCTGCTCCTAA)	0.393
CCTGGGACTTGGGTTCTAACCTGTTGCGA (site CCTGGGACTAC)	0.0343
CCTGGGACTTGGGTTCTAACCTGTTGCGA (site CCTGGGACTCC)	0.256
CCTGGGACTTGGGTTCTAACCTGTTGCGA (site CCTGGGACTGC)	0.961
CCTGGGACTTGGGTTCTAACCTGTTGCGA (site CCTGGGACTTC)	2.58
CCTGGTCCTTGGGTTCTAACCTGTTGCCT (site CCTGGGGCTAG)	0.16
CCTGGTCCTTGGGTTCTAACCTGTTGCCT (site CCTGGTCCTAG)	1.56
CCTTAGACTTGGGTTCTAACCTGTTGCGT (site CCTAATACTAC)	0.107
CCTTAGACTTGGGTTCTAACCTGTTGCGT (site CCTTAGACTAC)	1.8
CCTTCTACTTGGGTTCTAACCTGTTGCCT (site CCTTCTACTAG)	0.225
CCTTCTACTTGGGTTCTAACCTGTTGCCT (site CCTTCTACTTA)	0
CCTTGCCCTTGGGTTCTAACCTGTTGCCT (site CATTGCCCTAG)	0.0176
CCTTGCCCTTGGGTTCTAACCTGTTGCCT (site CCTTGCCCTAG)	0.667
CCTTGCCCTTGGGTTCTAACCTGTTGCCT (site CGTTGCCCTAG)	0.1
CCTTGCCCTTGGGTTCTAACCTGTTGCCT (site CTTTGCCCTAG)	0.117
CCTTGTCCTTGGGTTCTAACCTGTTGCAG (site CCTTGTCCTCT)	0.79
CCTTGTCCTTGGGTTCTAACCTGTTGCAG (site CGTTGTCCTTT)	0.144
CCTTGTGCTTGGGTTCTAACCTGTTGCGT (site CCTTGTGCTAC)	0.158
CCTTGTGCTTGGGTTCTAACCTGTTGCGT (site TAGGTATCTCT)	0.0915
CCTTGTTCTTGGGTTCTAACCTGTTGCCT (site ACTTGTTCTAG)	0.105
CCTTGTTCTTGGGTTCTAACCTGTTGCCT (site CCTTGTTCTAG)	0.0314
CCTTGTTCTTGGGTTCTAACCTGTTGCCT (site GCTTGTTCTAG)	0.14
